Literature values as cited in patent US20230165842A1, “NEW USES” (priority 2020, published 2023).
Where two headings read alike, the source gives them in different places.

Experiments:
[1] = tested on: patients hospitalized with COVID-19; details: With Calcifediol Treatment (n = 50)
COVID-19 cases = details: conclusion for the named statins
[2] = tested on: adults with confirmed SARS-CoV-2 infection
[3] = tested on: hospitalised Covid-19 patients
[4] = tested on: dysgeusia in COVID positive patients
[5] = tested on: SARS-CoV-2 Spike pseudotyped virus; details: ACE2h HEK293T cells; Control = 1
SARS-CoV-2 [6] = tested on: SARS-CoV-2
[7] = tested on: COVID-19-induced pulmonary fibrosis
SARS-CoV-2 [8] = details: Vero E6
SARS-CoV-2 [9] = details: Calu-3
SARS-CoV-2 [10] = details: Vero E6; for IC50: 2 h pre-treatment, 24 h
Vero E6 cells = details: Vero E6
SARS-CoV-2 [11] = tested on: SARS-CoV-2; parameters: Reducing Viral propagation: concentration or dose not given beside the values; details: Vero E6; MOI=0.0005
OC43 [12] = details: maximal across all concentrations
OC43 [13] = tested on: OC43
SARS-CoV-2 [14] = tested on: SARS-CoV-2; remark: listed apart in the source
SARS-CoV-2 [15] = details: treated 24 hours prior to infection; read-out: IC50 in Calu-3
SARS-CoV-2 [16] = details: Vero-E6; MOI 0.005
[17] = tested on: human coronavirus (HCoV)-229E; details: MRC5 cells
SARS-CoV-2 [18] = details: Vero cells; 2 h pre-treatment; vs DMSO control; p<0.0001
SARS-CoV-2 [19] = details: concentration dependent; data not shown
[20] = six weeks after initiation of therapy

C=C1CC[C@H](O)C/C1=C/C=C1\CCC[C@]2(C)[C@@H]([C@H](C)CCCC(C)(C)O)CC[C@@H]12 [Calcifediol, calcifediol]
Not requiring ICU, n (%) [1]: 49 (98)
Requiring ICU, n (%) [1]: 1 (2)

CC(C)c1c(C(=O)Nc2ccccc2)c(-c2ccccc2)c(-c2ccc(F)cc2)n1CC[C@@H](O)C[C@@H](O)CC(=O)O [Compound 8, atorvastatin]
mortality in patients infected with COVID-19 (COVID-19 cases): may reduce mortality

COCCCC/C(=N\OCCN)c1ccc(C(F)(F)F)cc1 [Compound 34, fluvoxamine]
incidence of subsequent hospitalization (Covid positive patients; 0 of 65, vs 12.5% with observation): 0%
ongoing symptoms present at day 14 (Covid positive patients; 0 of 65, vs 60% with observation alone): 0%
serious adverse events (Covid positive patients; 50 mg twice daily for 14 days): No serious adverse events
Respiratory Rate (Covid positive patients; Day 1, N = 65): 17.7 ± 2.9
Respiratory Rate (Covid positive patients; Day 7, N = 65): 12.9 ± 1.6
Hospitalized within 14 days (patients) (Covid positive patients; N = 65): 0
ICU care and/or Death (patients) (Covid positive patients; N = 65): 0
Symptoms at Day 14: 1-3 (patients) (Covid positive patients; N = 65): 0
Symptoms at Day 14: 4-6 (patients) (Covid positive patients; N = 65): 0
Symptoms at Day 14: None (patients) (Covid positive patients; N = 65): 65
Symptoms at Day 14: ≥7 (patients) (Covid positive patients; N = 65): 0
adverse events leading to early discontinuation (Covid positive patients; human, in vivo): No adverse events led to early discontinuation
serious adverse event (number) ([2]; fluvoxamine group, placebo 6): 1
other adverse events (number) ([2]; fluvoxamine group, placebo 12): 11
Absolute difference (95% CI), any nonzero value ([2]; fluvoxamine vs placebo): −8.3%
Absolute difference (95% CI), clinical deterioration ([2]; fluvoxamine vs placebo): 8.7%
Absolute difference (95% CI), clinical status 0 (none) ([2]; fluvoxamine vs placebo): 8.3%
Absolute difference (95% CI), clinical status mean ([2]; fluvoxamine vs placebo): −0.22
Clinical status on 7-point scale, mean (SD) ([2]; n = 80): 0
Clinical status on 7-point scale: 0 (none), No. (%) ([2]; n = 80): 80 (100)
Clinical status on 7-point scale: Any nonzero value, No. (%) ([2]; n = 80): 0
Primary end point Clinical deterioration (met both criteria), No. (%) ([2]; n = 80, 100 mg 3 times daily for 15 days): 0

COc1cc(Nc2ncc(F)c(Nc3ccc4c(n3)N(COP(=O)(O)O)C(=O)C(C)(C)O4)n2)cc(OC)c1OC [Compound 35, fostamatinib]
primary endpoint of safety ([3]; Phase II, oral twice-daily plus SOC for 14 days): met the primary endpoint of safety
improvement in clinical status ([3]; by day 15 and 29): superior to placebo
outcome of intubated patients on mechanical ventilation ([3]; two patients receiving drug): improved in seven days and were off the ventilator
chances of occurrence of serious adverse events ([3]; vs placebo): halved
number of days in the ICU ([3]; vs seven in the placebo group): three
deaths ([3]; vs three deaths in the placebo arm): No deaths

CC(C)c1nc(N(C)S(C)(=O)=O)nc(-c2ccc(F)cc2)c1/C=C/[C@@H](O)C[C@@H](O)CC(=O)O [Compound 64, rosuvastatin]
mortality in patients infected with COVID-19 (COVID-19 cases): may reduce mortality

C[C@]12C=CC(=O)C=C1CC[C@H]1[C@@H]3C[C@@H](O)[C@](O)(C(=O)CO)[C@@]3(C)C[C@H](O)[C@@]12F [Compound 72, triamcinolone]
bitter identified: NO (patients) ([4]; Cases (n = 60), day 5): 7
bitter identified: YES (patients) ([4]; Cases (n = 60), day 5): 53
salt identified: NO (patients) ([4]; Cases (n = 60), day 5): 10
salt identified: YES (patients) ([4]; Cases (n = 60), day 5): 50
sour identified: NO (patients) ([4]; Cases (n = 60), day 5): 10
sour identified: YES (patients) ([4]; Cases (n = 60), day 5): 50
sweet identified: NO (patients) ([4]; Cases (n = 60), day 5): 5
sweet identified: YES (patients) ([4]; Cases (n = 60), day 5): 55
recovery of sense of smell taste ([4]; all anosmia and dysgeusia cases): recovered their sense of smell taste within a week
improved for bitter ([4]; oral paste, fifth day): 83.33%
improved for salty taste ([4]; oral paste, fifth day): 83.33%
improved for sour taste ([4]; oral paste, fifth day): 83.34%
improved for sweet ([4]; oral paste, fifth day): 91.67%

Clc1ccc2c(c1)CCc1cccnc1C2=C1CCNCC1 [Compound 80, desloratadine]
pseudotype entry (mean) [5]: 0.3

OCc1c[nH]c2ccccc12 [Compound 110, indole-3-carbinol]
SARS-CoV-2-induced CPE (SARS-CoV-2 [6]; 16.67 and 5.56 μM): not affected
reduced the SARS-CoV-2-induced CPE (SARS-CoV-2 [6]; Vero E6, 50 μM, 72 h post-infection, vs DMSO): about 60%
virus yield reduction (SARS-CoV-2 [6]; at the various concentrations tested): 2 to 4 log

COC(=O)c1ccc2c(c1)NC(=O)/C2=C(\Nc1ccc(N(C)C(=O)CN2CCN(C)CC2)cc1)c1ccccc1 [Compound 134, nintedanib]
serum level of alanine aminotransferase (adverse event) ([7]; 300 mg/day oral, managed with reduction to 200 mg/day): became elevated
Ground-glass opacities of the lung (CT) ([7]; FIG. 29-D): mildly attenuated without further progression of pulmonary fibrosis
respiratory condition and exercise tolerance ([7]; after three months of rehabilitation with drug and tapering of prednisolone): improved
other side effects ([7]; in vivo): No other side effects
vital capacity [7, 20]: 1.27 L
vital capacity per predicted [7, 20]: 61.7%

COc1cc([C@@H]2c3cc4c(cc3[C@@H](O[C@@H]3O[C@@H]5CO[C@@H](C)O[C@H]5[C@H](O)[C@H]3O)[C@H]3COC(=O)[C@H]23)OCO4)cc(OC)c1O [Compound 137, etoposide]
PaO2/FiO2 ratio improved, average (COVID-19 ARDS patients; 11 patients, 50-150 mg/m^2): 195%
patients fully recovered and discharged home (COVID-19 ARDS patients; of 11 patients): Nine
patients needed mechanical ventilation (COVID-19 ARDS patients; of 11 patients): Three
patients died (COVID-19 ARDS patients; of 11 patients, thrombotic complications): Two

C[C@H]1[C@H](OC(=O)CCC(=O)O)O[C@@H]2O[C@@]3(C)CC[C@H]4[C@H](C)CC[C@@H]1[C@@]24OO3 [Compound 145, artesunate]
IC50 (SARS-CoV-2 [8]): 53.1 µM
Selectivity Index (SI) (SARS-CoV-2 [8]): >1.885
IC50 (SARS-CoV-2 [9]): 1.76 µM
Selectivity Index (SI) (SARS-CoV-2 [9]): >56.82
CC50 (Vero E6): > 100 µM
CC50 (Calu-3): > 100 µM

O=C1NCN(c2ccccc2)C12CCN(CCCC(c1ccc(F)cc1)c1ccc(F)cc1)CC2 [Compound 158, fluspirilene]
Selectivity Index (SI) (SARS-CoV-2 [10]; MOI 0.004): 9.61
IC50 (SARS-CoV-2 [10]; MOI 0.004): 6.36 µM
Selectivity Index (SI) (SARS-CoV-2 [10]; MOI 0.01): >5.71
IC50 (SARS-CoV-2 [10]; MOI 0.01): 5.32 µM
CC50 (Vero E6 cells; listed as MOI 0.004): 30.3 µM
CC50 (Vero E6 cells; listed as MOI 0.01): 30.3 µM

NC1(c2ccc(-c3nc4ccn5c(=O)[nH]nc5c4cc3-c3ccccc3)cc2)CCC1 [Compound 173, mk-2206]
IC50 (SARS-CoV-2 [11]): 0.09 µM
Reducing Viral propagation (SARS-CoV-2 [11]): 88%

CS(=O)(=O)CCNCc1ccc(-c2ccc3ncnc(Nc4ccc(OCc5cccc(F)c5)c(Cl)c4)c3c2)o1 [Compound 187, lapatinib]
Max % Inhibition of Viral Killing (OC43 [12]): 63.99%
OC43 viral replication (OC43 [13]): strongly inhibited
SARS-CoV-2 viral replication (SARS-CoV-2 [14]): strongly inhibited
toxicity (SARS-CoV-2 [14]; at doses readily achievable in human tissues, data not shown): without any toxicity
inhibited SARS-CoV-2 replication (SARS-CoV-2 [14]; data not shown): over 50,000 fold

CCN(CC)CCCC(C)Nc1ccnc2cc(Cl)ccc12 (centres unmarked) [Reference Compound 1, chloroquine]
IC50 (SARS-CoV-2 [10]; MOI 0.004): 42 µM
IC50 (SARS-CoV-2 [10]; MOI 0.01): 46.8 µM
IC50 (SARS-CoV-2 [15]): 69.2 µM
EC50 (SARS-CoV-2 [16]): 1.36 µM
EC50 [17]: 5 µM
reduction of the viral titer [17]: 60%

NCCCCNCCCN [Reference Compound 2, spermidine]
IC50 (SARS-CoV-2 [11]): 149 µM
Reducing Viral propagation (SARS-CoV-2 [11]): 85%

O=C(Nc1ccc([N+](=O)[O-])cc1Cl)c1cc(Cl)ccc1O [Reference Compound 3, niclosamide]
IC50 (SARS-CoV-2 [11]): 17 µM
Reducing Viral propagation (SARS-CoV-2 [11]): >99%

COc1ccc2nc3cc(Cl)ccc3c(Nc3cc(CN4CCCC4)c(O)c(CN4CCCC4)c3)c2n1 [Reference Compound 4, pyronaridine]
IC50 (SARS-CoV-2 [8]): 1.08 µM
Selectivity Index (SI) (SARS-CoV-2 [8]): 34.22
IC50 (SARS-CoV-2 [9]): 6.41 µM
Selectivity Index (SI) (SARS-CoV-2 [9]): 6.718
CC50 (Vero E6; Vero E6): 37.1 µM
CC50 (Calu-3; Calu-3): 43.1 µM

CCN(CCO)CCCC(C)Nc1ccnc2cc(Cl)ccc12 (centres unmarked) [Reference Compound 5, hydroxychloroquine]
IC50 (SARS-CoV-2 [8]): 1.07 µM
Selectivity Index (SI) (SARS-CoV-2 [8]): >93.55
IC50 (SARS-CoV-2 [9]): 103 µM
Selectivity Index (SI) (SARS-CoV-2 [9]): >0.972
decrease in viral load (SARS-CoV-2 [18]): 26.9 fold
CC50 (Vero E6; Vero E6): > 100 µM
CC50 (Calu-3; Calu-3): > 100 µM

CC(=O)OCOC(=O)CN(CC(=O)OCOC(C)=O)c1ccccc1OCCOc1ccccc1N(CC(=O)OCOC(C)=O)CC(=O)OCOC(C)=O [compound 15, BAPTA-AM]
inhibition of SARS-CoV-2 replication (SARS-CoV-2 [19]): significantly inhibit

NCCOB(c1ccccc1)c1ccccc1 [compound 16]
inhibition of SARS-CoV-2 replication (SARS-CoV-2 [19]): significantly inhibit

maraviroc [Compound 170]
decrease in viral load (SARS-CoV-2 [18]): 30.7 fold

saracatinib [Compound 112]
Max % Inhibition of Viral Killing (OC43 [12]): 22.48%
OC43 viral replication (OC43 [13]): inhibition also observed
SARS-CoV-2 viral replication (SARS-CoV-2 [14]): inhibition also observed
